Like-named read-outs stand apart in the source and are kept apart here.
Experiments:
[1] = Cytotoxicity, ATPlite cell viability; assay type: cell-based; conditions: human, mean value, HepG2 or HepG2.117 cells
Description: Cytotoxicity of the compounds was tested using HepG2 or HepG2.117 cells, incubated for 4 days in the presence of compounds. The viability of the cells was assessed using the Perkin Elmer ATPlite Luminescence Assay System.”

HBV = assay: anti HBV activity, HepG2.117 cell line, intracellular HBV DNA by real-time PCR; assay type: cell-based, hepatitis B virus; conditions: for EC50: Hepatitis B virus, read-out: HBV-AVE-HepG2.117_intra_EC50; for improved anti-HBV activity, fold improvement over Ref. compound 59: from table 4 EC50 values
Description: The anti HBV activity was measured using the HepG2.117 cell line, a stable, inducible HBV producing cell line, which replicates HBV in the absence of doxicycline (Tet-off system). The HepG2 cell line is available from ATCC® under number HB-8065. Transfection of the HepG2 cell line can be as described in Sun and Nassal 2006 Journal of Hepatology 45 (2006) 636-645 “Stable HepG2-and Huh7-based human hepatoma cell lines for efficient regulated expression of infectious hepatitis B virus”.
For the antiviral assay, HBV replication was induced, followed by a treatment with serially diluted compound in 96-well plates. After 3 days of treatment, the antiviral activity was determined by quantification of intracellular HBV DNA using real-time PCR and an HBV specific primer set and probe.

[2] = 72 h, mean value, HepG2.117 cells, 3 days of treatment, intracellular HBV DNA

Compound	CC50 at 4 days [1]	EC50 (HBV; [2])	EC50 (HBV; HepG2.117, 72 h)	improved anti-HBV activity, fold improvement over Ref. compound 59 (HBV)
Cn1cc(C(=O)C(=O)N[C@@]2(c3cn[nH]n3)CCC(F)(F)C2)cc1C(=O)Nc1ccc(F)c(C#N)c1 (single isomer, unassigned) [18*S]	20700 nM	64 nM	–	–
Cn1cc(C(=O)C(=O)NC(CC(F)(F)F)c2cn[nH]n2)cc1C(=O)Nc1ccc(F)c(C#N)c1 (stereo not shown) [Compound 20RS]	12000 nM	61 nM	–	–
Cc1cc(NC(=O)c2cc(C(=O)C(=O)NCc3cn[nH]n3)cn2C)ccc1F [Ref. 59, reference compound]	> 50000 nM	583 nM	–	–
Cc1c(C(=O)C(=O)NC2(c3cn[nH]n3)CC(F)(F)C2)c(C2CC2)n(C)c1C(=O)Nc1ccc(F)c(Cl)c1 [Compound 54]	26300 nM	3 nM	–	–
Cc1cc(NC(=O)c2cc(C(=O)C(=O)NC3(c4cn[nH]n4)CC(F)(F)C3)cn2C)ccc1F [Compound 2, 4-[{[3,3-Difluoro-1-(2H-1,2,3-triazol-4-yl)cyclobutyl]amino}(oxo)acetyl]-N-(4-fluoro-3-methylphenyl)-1-methyl-1H-pyrrole-2-carboxamide]	23800 nM	–	32 nM	~18 fold
Cc1c(C(=O)C(=O)N[C@@H](CC(F)(F)F)c2cn[nH]n2)cn(C)c1C(=O)Nc1ccc(F)c(C#N)c1 (single isomer, unassigned) [47*S]	> 50000 nM	11 nM	–	–
Cc1c(C(=O)C(=O)N[C@H](CC(F)(F)F)c2cn[nH]n2)c(C)n(C)c1C(=O)Nc1ccc(F)c(C#N)c1 (single isomer, unassigned) [44*R]	> 50000 nM	5 nM	–	–
Cn1c(C(=O)Nc2ccc(F)c(C#N)c2)c(F)c(C(=O)C(=O)NC2(c3cn[nH]n3)CC(F)(F)C2)c1C1CC1 [Compound 52]	> 40600 nM	9 nM	–	–
Cc1c(C(=O)C(=O)N[C@H](CC(F)(F)F)c2cn[nH]n2)cn(C)c1C(=O)Nc1ccc(F)c(C#N)c1 (single isomer, unassigned) [47*R]	> 50000 nM	21 nM	–	–
Cn1cc(C(=O)C(=O)N[C@H](CC(F)F)c2cn[nH]n2)cc1C(=O)Nc1ccc(F)c(C#N)c1 (single isomer, unassigned) [24*R]	9400 nM	46 nM	–	–
Cc1c(C(=O)C(=O)N[C@]2(c3cn[nH]n3)C[C@H](F)C2)cn(C)c1C(=O)Nc1ccc(F)c(C#N)c1 [Compound 57cis]	> 50000 nM	12 nM	–	–
Cc1c(C(=O)C(=O)N[C@]2(c3cn[nH]n3)C[C@@H](F)C2)cn(C)c1C(=O)Nc1ccc(F)c(C#N)c1 [Compound 57trans]	> 50000 nM	7 nM	–	–
Cc1c(C(=O)C(=O)N[C@@]2(c3cn[nH]n3)CCC(F)(F)C2)cn(C)c1C(=O)Nc1ccc(F)c(Cl)c1 (single isomer, unassigned) [25*S]	24200 nM	4 nM	–	–
Cc1c(C(=O)C(=O)NC2(c3cn[nH]n3)CC(F)(F)C2)c(Cl)n(C)c1C(=O)Nc1ccc(F)c(Br)c1 [Compound 40]	6600 nM	4 nM	–	–
Cc1c(C(=O)C(=O)N[C@@H](CC(F)(F)F)c2cn[nH]n2)c(C)n(C)c1C(=O)Nc1ccc(F)c(C#N)c1 (single isomer, unassigned) [44*S]	> 50000 nM	< 12 nM	–	–
Cn1cc(C(=O)C(=O)NC2(c3c[nH]nn3)CC2)cc1C(=O)Nc1ccc(F)c(C#N)c1 [Compound 10]	> 50000 nM	150 nM	–	–
Cc1c(C(=O)C(=O)NC2(c3cn[nH]n3)CC(F)(F)C2)c(F)c(C(=O)Nc2ccc(F)c(C#N)c2)n1C [Compound 42]	> 50000 nM	2 nM	–	–
Cc1c(C(=O)C(=O)N[C@H](CC(F)(F)F)c2cn[nH]n2)cn(C)c1C(=O)Nc1ccc(F)c(Cl)c1 (single isomer, unassigned) [26*R]	> 50000 nM	7 nM	–	–
Cn1cc(C(=O)C(=O)N[C@H](c2cnn[nH]2)C(C)(C)C)cc1C(=O)Nc1ccc(F)c(C#N)c1 (stereo in doubt) [Compound 11]	26000 nM	100 nM	–	–
Cc1c(C(=O)C(=O)N[C@]2(c3cn[nH]n3)CCC(F)(F)C2)cn(C)c1C(=O)Nc1ccc(F)c(Cl)c1 (single isomer, unassigned) [25*R]	18600 nM	3 nM	–	–
Cn1cc(C(=O)C(=O)NC2(c3c[nH]cn3)CC(F)(F)C2)cc1C(=O)Nc1ccc(F)c(C#N)c1 [Compound 56]	20000 nM	44 nM	–	–
Cc1c(C(=O)C(=O)NC2(c3cn[nH]n3)CC(F)(F)C2)cn(C)c1C(=O)Nc1ccc(F)c(C#N)c1F [Compound 46]	> 50000 nM	11 nM	–	–
Cc1c(C(=O)C(=O)NC2(c3cn[nH]n3)CC(F)(F)C2)c(C#N)n(C)c1C(=O)Nc1ccc(F)c(Cl)c1 [Compound 55]	> 50000 nM	809 nM	–	–

Compound	CC50 at 4 days [1]	EC50 (HBV; [2])	EC50 (HBV; HepG2.117, 72 h)	improved anti-HBV activity, fold improvement over Ref. compound 59 (HBV)
Cc1c(C(=O)C(=O)NC2(c3cn[nH]n3)CC(F)(F)C2)cn(C)c1C(=O)Nc1ccc(F)c(Br)c1 [Compound 34]	26300 nM	4 nM	–	–
Cn1cc(C(=O)C(=O)N[C@@H](CC(F)F)c2cn[nH]n2)cc1C(=O)Nc1ccc(F)c(C#N)c1 (single isomer, unassigned) [24*S]	28200 nM	562 nM	–	–
Cn1cc(C(=O)C(=O)NC(CC(F)F)c2cn[nH]n2)cc1C(=O)Nc1ccc(F)c(C#N)c1 (stereo not shown) [Compound 24RS]	22100 nM	60 nM	–	–
Cn1ncc(C2(NC(=O)C(=O)c3cn(C)c(C(=O)Nc4ccc(F)c(Cl)c4)c3Cl)CC(F)(F)C2)n1 [Compound 16]	> 50000 nM	3 nM	–	–
Cn1cc(C(=O)C(=O)NC2(c3nc[nH]n3)CC(F)(F)C2)cc1C(=O)Nc1ccc(F)c(C#N)c1 [Compound 30]	31100 nM	142 nM	–	–
Cc1nc(C2(NC(=O)C(=O)c3cc(C(=O)Nc4ccc(F)c(C#N)c4)n(C)c3)CC(F)(F)C2)n[nH]1 [Compound 22]	29500 nM	124 nM	–	–
Cc1c(C(=O)C(=O)NC(CC(F)F)c2cn[nH]n2)c(C)n(C)c1C(=O)Nc1ccc(F)c(C#N)c1 (stereo not shown) [Compound 29]	> 50000 nM	9 nM	–	–
Cn1cc(C(=O)C(=O)N[C@]2(c3cn[nH]n3)C[C@H]2C(F)F)cc1C(=O)Nc1ccc(F)c(C#N)c1 (single isomer, unassigned) [27*S*S]	> 50000 nM	92 nM	–	–
Cc1c(C(=O)C(=O)NC2(c3cn[nH]n3)CC(F)(F)C2)cc(C(=O)Nc2ccc(F)c(C#N)c2)n1C [Compound 45]	> 50000 nM	9 nM	–	–
Cn1cc(C(=O)C(=O)NC2(c3cnnn3C)CC(F)(F)C2)c(Cl)c1C(=O)Nc1ccc(F)c(Cl)c1 [Compound 14]	> 50000 nM	4 nM	–	–
Cc1c(C(=O)C(=O)N[C@]2(c3cn[nH]n3)C[C@H](O)C2)cn(C)c1C(=O)Nc1ccc(F)c(C#N)c1 [Compound 58cis]	> 50000 nM	90 nM	–	–
Cc1cc(NC(=O)c2cc(C(=O)C(=O)NC(C)c3cn[nH]n3)cn2C)ccc1F (stereo not shown) [Compound 1, N-(4-Fluoro-3-methylphenyl)-1-methyl-4-(oxo{[1-(2H-1,2,3-triazol-4-yl)ethyl]amino}acetyl)-1H-pyrrole-2-carboxamide]	> 50000 nM	–	51 nM	~10 fold
Cc1c(C(=O)C(=O)NC2(c3cn[nH]n3)CC(F)(F)C2)c(Cl)n(C)c1C(=O)Nc1ccc(F)c(Cl)c1 [Compound 35]	5800 nM	4 nM	–	–
Cn1cc(C(=O)C(=O)NC2(c3cn[nH]n3)CC(F)(F)C2)c(Cl)c1C(=O)Nc1ccc(F)c(C#N)c1 [Compound 8]	> 50000 nM	6 nM	–	–
Cn1cc(C(=O)C(=O)NC2(c3cn[nH]n3)COC2)cc1C(=O)Nc1ccc(F)c(C#N)c1 [Compound 17]	> 50000 nM	171 nM	–	–
Cc1c(C(=O)C(=O)N[C@@](C)(c2cn[nH]n2)C(F)F)cn(C)c1C(=O)Nc1ccc(F)c(C#N)c1 (single isomer, unassigned) [48*S]	> 50000 nM	4 nM	–	–
Cc1c(C(=O)C(=O)NC2(c3cn[nH]n3)CC(F)(F)C2)c(Cl)c(C(=O)Nc2ccc(F)c(C#N)c2)n1C [Compound 23]	> 50000 nM	4 nM	–	–
Cc1c(C(=O)C(=O)N[C@]2(c3cn[nH]n3)C[C@@H](O)C2)cn(C)c1C(=O)Nc1ccc(F)c(C#N)c1 [Compound 58trans]	> 50000 nM	88 nM	–	–
Cc1c(C(=O)C(=O)N[C@](C)(c2cn[nH]n2)C(F)F)cn(C)c1C(=O)Nc1ccc(F)c(C#N)c1 (single isomer, unassigned) [48*R]	> 50000 nM	12 nM	–	–
Cn1cc(C(=O)C(=O)N[C@]2(c3cn[nH]n3)CCC(F)(F)C2)cc1C(=O)Nc1ccc(F)c(C#N)c1 (single isomer, unassigned) [18*R]	14100 nM	15 nM	–	–
Cn1cc(C(=O)C(=O)NC2(c3cn[nH]n3)CC(F)(F)C2)c(Cl)c1C(=O)Nc1ccc(F)c(Cl)c1 [Compound 3]	22000 nM	6 nM	–	–
Cn1cc(C2(NC(=O)C(=O)c3cn(C)c(C(=O)Nc4ccc(F)c(Cl)c4)c3Cl)CC(F)(F)C2)nn1 [Compound 15]	> 50000 nM	4 nM	–	–
Cn1cc(C(=O)C(=O)NC2(c3ccccc3)CC(F)(F)C2)cc1C(=O)Nc1ccc(F)c(C#N)c1 [Compound 36]	1100 nM	10 nM	–	–
